Measured values published in US20230047208A1, “RNA Splicing Modulation” (The General Hospital Corporation, priority 2020, published 2023).

System: wildtype (WT) human fibroblast cell lines
Experiment: Transcriptome-wide splicing by RNA sequencing (RNASeq), exon triplet PSI change;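 on Effect: six WT fibroblast lines treated seven days versus DMSO vehicle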;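 on T-PSI: T-PSI is average treated PSI after seven days of treatment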
Assay type: cell-based
Design: key to Effect: Exclusion; Inclusion; Unchanged
Description: FIG. 2A provides a representation of an exon triplet. Exon U is upstream of Exon X, which is upstream of Exon D. R1, R2 and R3 represent RNA sequencing (RNASeq) reads spanning the regions between two adjacent exons. UI1, I1X, XI2 and I2D are four regions flanking the four splice sites of the exon-triplet. Each flanking region consists of 25 exonic base pairs and 75 intronic base pairs.
FIG. 2B provides a volcano plot showing the ψ (PSI: Percent Spliced-In) changes in splicing after treatment with Compound (I). Each dot represents one of the 161,097 expressed exon triplets in human fibroblasts. The x axis represents the ψ changes after treatment and the y axis represents the False Discovery Rate (FDR) (log 10 transformed). […] The horizontal dashed line indicates an FDR of 0.1. The dots on the right side of the right vertical dashed line and above the horizontal dashed line represent the exon-triplets with an increase for Exon X inclusion (Δψ≥0.1 and FDR<0.1) while the dots on left side of the left vertical dashed line and above the horizontal dashed line represent an increase for Exon X exclusion (Δψ≤−0.1 and FDR<0.1). Black dots in-between the two vertical dashed lines represent exon-triplets unchanged from the treatment.
In some aspects, analysis is performed on data derived from the assay to measure the magnitude of splicing to determine the amount of exons spliced into an mRNA transcript that is produced in the presence of Compound (I) relative to the amount in the absence of Compound (I) or presence of a negative control. In a preferred aspect, the method utilized is calculation of change in Percent Spliced In (ΔPSI). […] The ΔPSI value is derived from the formula: […]
The values for “a” and “b” represent the number of reads supporting the probability for potential inclusion or exclusion of an exon in an RNA transcript. The “a” value is derived from the number of reads within an exon triplet covering, in 5′ to 3′ order: the last few bases (>1 nucleotide) of an upstream exon operably linked to the first few bases (>1 nucleotide) of a middle exon. The “b” value is derived from the number of reads within an exon triplet covering, in 5′ to 3′ order: the last few bases (>1 nucleotide) of the middle exon operably linked to the first few bases (>1 nucleotide) of a downstream exon. The number of reads will indicate whether the splice junction of a middle exon has been identified as potentially having a CNN Motif(s) by the CNN Model described herein, wherein the inclusion or exclusion of the middle exon may be modulated in the presence of Compound (I) to produce one or more mature RNA isoforms from the gene transcript. The value for “c” represents the number of reads supporting the exclusion of the middle exon.
The effect on splicing modulation and corresponding splice differences toward exon inclusion or exclusion was determined by counting the RNASeq reads covering two splice junctions of exon triplets (three consecutive exons: Exon U, Exon X, Exon D) and the corresponding intervening introns, then comparing the change in Percent Spliced In (ΔPSI or Δψ) of the middle exon (Exon X) after treatment (as shown in FIG. 2A)^52,53. 934 exon triplets were identified showing differential middle exon inclusion or exclusion in response to Compound (I) treatment. Of these, 254 were exon inclusion events (Δψ≥0.1 and FDR<0.1) and 680 were exon exclusion events (Δψ≤−0.1 and FDR<0.1) (as shown in FIG. 2B). […] The splicing results were evaluated by RT-PCR in independent replicate experiments, confirming all the calculated Δψ values. […]

[1] = NSMCE2 Exon 126168242-126168340

Clc1nc(NCc2ccncc2)c2cc[nH]c2n1 [Compound (I), 2-chloro-N-(pyridin-4-ylmethyl)-7H-pyrrolo[2,3-d]pyrimidin-4-amine] was tested, and the Effect (NIN Exon 51233025-51233114) was “Unc”, the T-PSI (NIN Exon 51233025-51233114) was 0.896 and the ΔPSI (NIN Exon 51233025-51233114) was 0.008. The Effect (NIPA2 Exon 23027801-23027922) was “Exc”, the T-PSI (NIPA2 Exon 23027801-23027922) was 0.326 and the ΔPSI (NIPA2 Exon 23027801-23027922) was −0.185. The Effect (NIPA2 Exon 23033278-23033413) was “Exc”, the T-PSI (NIPA2 Exon 23033278-23033413) was 0.608 and the ΔPSI (NIPA2 Exon 23033278-23033413) was −0.163. The Effect (NLRC5 Exon 57110731-57110814) was “Exc”, the T-PSI (NLRC5 Exon 57110731-57110814) was 0.857 and the ΔPSI (NLRC5 Exon 57110731-57110814) was −0.122. For the same compound, the Effect (NLRX1 Exon 119043065-119043134) was “Exc”, the T-PSI (NLRX1 Exon 119043065-119043134) was 0.742 and the ΔPSI (NLRX1 Exon 119043065-119043134) was −0.143. For the same compound, the Effect (NPEPPS Exon 45654447-45654526) was “Inc”, the T-PSI (NPEPPS Exon 45654447-45654526) was 0.172 and the ΔPSI (NPEPPS Exon 45654447-45654526) was 0.135. For the same compound, the Effect (NPR2 Exon 35802729-35802800) was “Exc”, the T-PSI (NPR2 Exon 35802729-35802800) was 0.878 and the ΔPSI (NPR2 Exon 35802729-35802800) was −0.101. For the same compound, the Effect (NPRL3 Exon 167300-167374) was “Exc”, the T-PSI (NPRL3 Exon 167300-167374) was 0.697 and the ΔPSI (NPRL3 Exon 167300-167374) was −0.155. The Effect (NPRL3 Exon 174936-175072) was “Unc”, the T-PSI (NPRL3 Exon 174936-175072) was 0.206 and the ΔPSI (NPRL3 Exon 174936-175072) was 0.006. The Effect (NPRL3 Exon 180521-180590) was “Unc”, the T-PSI (NPRL3 Exon 180521-180590) was 0.858 and the ΔPSI (NPRL3 Exon 180521-180590) was 0.003. The Effect (NRG1 Exon 32620736-32620877) was “Inc”, the T-PSI (NRG1 Exon 32620736-32620877) was 0.510 and the ΔPSI (NRG1 Exon 32620736-32620877) was 0.182. The Effect (NSFL1C Exon 1436359-1436364) was “Exc”, the T-PSI (NSFL1C Exon 1436359-1436364) was 0.345 and the ΔPSI (NSFL1C Exon 1436359-1436364) was −0.153. For the same compound, the Effect (NSFL1C Exon 1436359-1436515) was “Exc”, the T-PSI (NSFL1C Exon 1436359-1436515) was 0.214 and the ΔPSI (NSFL1C Exon 1436359-1436515) was −0.123. For the same compound, the Effect [1] was “Inc”, the T-PSI [1] was 0.162 and the ΔPSI [1] was 0.133. The Effect (NSUN4 Exon 46812593-46812747) was “Exc”, the T-PSI (NSUN4 Exon 46812593-46812747) was 0.817 and the ΔPSI (NSUN4 Exon 46812593-46812747) was −0.124. For the same compound, the Effect (NT5C2 Exon 104871502-104871562) was “Exc”, the T-PSI (NT5C2 Exon 104871502-104871562) was 0.351 and the ΔPSI (NT5C2 Exon 104871502-104871562) was −0.306. The Effect (NTMT1 Exon 132394929-132395080) was “Unc”, the T-PSI (NTMT1 Exon 132394929-132395080) was 0.828 and the ΔPSI (NTMT1 Exon 132394929-132395080) was −0.009. For the same compound, the Effect (NTPCR Exon 233091303-233091465) was “Unc”, the T-PSI (NTPCR Exon 233091303-233091465) was 0.785 and the ΔPSI (NTPCR Exon 233091303-233091465) was 0.009. For the same compound, the Effect (NUB1 Exon 151046159-151046326) was “Exc”, the T-PSI (NUB1 Exon 151046159-151046326) was 0.858 and the ΔPSI (NUB1 Exon 151046159-151046326) was −0.126. For the same compound, the Effect (NUBP2 Exon 1836758-1836956) was “Unc”, the T-PSI (NUBP2 Exon 1836758-1836956) was 0.575 and the ΔPSI (NUBP2 Exon 1836758-1836956) was 0.006. For the same compound, the Effect (NUMB Exon 73833605-73833689) was “Unc”, the T-PSI (NUMB Exon 73833605-73833689) was 0.697 and the ΔPSI (NUMB Exon 73833605-73833689) was −0.003. The Effect (NUP43 Exon 150059779-150059914) was “Exc”, the T-PSI (NUP43 Exon 150059779-150059914) was 0.865 and the ΔPSI (NUP43 Exon 150059779-150059914) was −0.118. For the same compound, the Effect (NUP62 Exon 50430951-50431105) was “Inc”, the T-PSI (NUP62 Exon 50430951-50431105) was 0.787 and the ΔPSI (NUP62 Exon 50430951-50431105) was 0.124. For the same compound, the Effect (NUP98 Exon 3707294-3707424) was “Unc”, the T-PSI (NUP98 Exon 3707294-3707424) was 0.862 and the ΔPSI (NUP98 Exon 3707294-3707424) was −0.009. The Effect (NUPL2 Exon 23235458-23235534) was “Exc”, the T-PSI (NUPL2 Exon 23235458-23235534) was 0.602 and the ΔPSI (NUPL2 Exon 23235458-23235534) was −0.244. The Effect (NUTF2 Exon 67881181-67881359) was “Unc”.
